Results reported in publication PMC12049818, “Identification of NUV-244 as a PNPLA3 I148M degrading small molecule” (iScience, 2025).
Where two headings read alike, the source gives them in different places.

Assays:
PNPLA3 I148M-tagRFP = target: T1, PNPLA3 I148M-tagRFP (Homo sapiens, UniProt Q9NST1, I148M); assay: Huh7 PNPLA3 I148M-tagRFP reduction on lipid droplets (high-content imaging); assay type: cell-based
T1 construct: host or cells: Huh7
T1 sequence (Q9NST1 1-481 I148M): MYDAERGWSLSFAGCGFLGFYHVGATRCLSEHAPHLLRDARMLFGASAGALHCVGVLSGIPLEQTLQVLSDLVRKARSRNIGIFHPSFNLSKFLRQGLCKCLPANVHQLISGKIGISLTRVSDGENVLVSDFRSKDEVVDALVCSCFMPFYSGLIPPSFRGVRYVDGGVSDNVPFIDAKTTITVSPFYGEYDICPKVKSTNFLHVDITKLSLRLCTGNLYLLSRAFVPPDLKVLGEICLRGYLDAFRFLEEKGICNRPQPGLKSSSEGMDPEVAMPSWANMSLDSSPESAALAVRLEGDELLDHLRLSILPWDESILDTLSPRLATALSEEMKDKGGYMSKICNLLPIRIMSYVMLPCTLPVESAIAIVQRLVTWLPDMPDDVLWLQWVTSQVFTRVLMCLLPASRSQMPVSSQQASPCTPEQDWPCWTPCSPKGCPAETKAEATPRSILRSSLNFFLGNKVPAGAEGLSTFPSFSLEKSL
Protocol: For dose-response cells were seeded at 4000 c/30 μl per well in 384 well plates (Revvity, Waltham, MA, USA, PhenoPlate 384-well microplate, #6057308) and stored in a 37°C incubator with 5% CO2 and 95% humidity overnight. Compounds, serially diluted, and DMSO controls were added, and cells were incubated for another 24h. Cells were fixed and stained with a mixture of Paraformaldehyde (final 1%, Electron Microscopy Science), BODIPY (final 38 nM, Invitrogen) and Hoechst 33342 (final 2 μg/ml, Biotium) diluted in PBS for 30 min at room temperature in the dark (no wash off).
Confocal images were acquired using the Opera Phenix system (Revvity, USA) with a 10x, 20x or 40x water objective and excitation at 405 nm (Hoechst), 488 nm (BODIPY), and 532 nm (PNPLA3 I148M-tagRFP).
Images were analyzed using Harmony (Revvity) and MetaXpress software (Molecular Devices, USA) to quantify lipid droplet morphology and PNPLA3 I148M-tagRFP intensity.
Assay plates were evaluated based on Z’ scores (>0.6) and signal-to-background ratio (>12) using Genedata Screener® for HTS and Condoseo modules (Genedata, Switzerland). Normalization, quality control, and fitting curves for EC50 determination of tested compounds were performed with Genedata Screener® for high-content screening and Genedata Condoseo modules (Genedata AG, Basel, Switzerland). More than 820K cpds were screened on 791 1536W plates in 11 runs covering three weeks of primary HTS. Automated image analysis routines were set up to quantify the number, morphology and intensity of nuclei, lipid droplets and the intensity of PNPLA3 I148M-tagRFP on lipid droplets. Toxic or autofluorescent compounds were excluded from the hitlist based on nuclear count, area, and intensity measurements as well as lipid droplet staining intensity compared to control cells.

PNPLA2 = target: T2, PNPLA2 (Homo sapiens, UniProt Q96AD5); assay: nanoDSF thermal shift, PNPLA2 protein; assay type: binding; details: ligand 25 μM
T2 sequence (Q96AD5 1-504): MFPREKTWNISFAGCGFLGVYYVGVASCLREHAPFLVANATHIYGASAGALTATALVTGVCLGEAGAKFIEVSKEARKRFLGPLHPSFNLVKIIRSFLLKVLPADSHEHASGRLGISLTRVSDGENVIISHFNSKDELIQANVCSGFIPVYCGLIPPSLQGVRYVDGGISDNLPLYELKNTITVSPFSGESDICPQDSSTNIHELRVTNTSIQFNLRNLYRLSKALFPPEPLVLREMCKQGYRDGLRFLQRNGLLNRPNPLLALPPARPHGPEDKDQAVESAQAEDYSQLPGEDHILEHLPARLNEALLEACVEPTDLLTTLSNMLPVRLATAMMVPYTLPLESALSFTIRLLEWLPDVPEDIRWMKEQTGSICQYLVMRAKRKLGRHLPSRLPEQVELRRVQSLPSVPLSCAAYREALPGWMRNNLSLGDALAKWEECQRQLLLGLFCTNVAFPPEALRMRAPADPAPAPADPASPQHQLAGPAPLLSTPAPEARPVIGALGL
From the text: To investigate the mode of action of NUV-244, we evaluated its direct binding to the PNPLA3 I148M protein using nano differential scanning fluorimetry (nanoDSF). In this assay, compounds that bind to a target protein can lead to thermal stabilization, preventing protein denaturation, which is reflected in a shift of the protein melting curve.
Full-length wild-type PNPLA3 (Q9NST1), mutant PNPLA3 (I148M), and PNPLA2 (Q96AD5) were cloned into the pVL1393 vector with an N-terminal Flag-Tag. Proteins were expressed in SF9 cells infected at a multiplicity of infection (MOI) of 1 for 72 hours. Protein purification was performed using a two-step process. The first step involved affinity purification using M2 anti-Flag agarose beads. This was followed by gel filtration chromatography using a Superdex 200 column. Thermal melting experiments were carried out using a Prometheus NT.48 instrument (NanoTemper Technologies). Proteins were prepared in 20 mM Tris-HCl pH 7.4, 100 mM NaCl, 5 % Glycerol, 2 mM DTT and 0.2 mg/mL was used as a final concentration in 50 μL volume. For binding experiments, ligands were added to the mixture at a final concentration of 25 μM, DMSO was used as control. […] The intrinsic protein fluorescence at 330 and 350 nm was recorded. Data were analysed using Prometheus NT.48 software. Thermal shifts (ΔTm) were calculated, and Z-scores greater than 6 indicated robust stabilization. […]

LX-2 cells = assay: Incucyte growth curves, LX-2; assay type: cell-based, human; details: 1μM or 5μM; compared to DMSO
Protocol: (§1) Huh7, Huh7 PNPLA3 I148M, Huh7 PNPLA3, Hep3b and LX-2 cells were seeded at a concentration of 1000 cells/well in 60 μl of growth medium on 384-well microtiter plates (Revvity, Waltham, MA, USA, PhenoPlate 384-well microplate, #6057308) and stored in a 37°C incubator with 5% CO2 and 95% humidity overnight. Next day cells were treated with DMSO as control (1% final concentration) or compound (1μM or 5μM final concentration) and cell density was recorded in the Incucyte® life cell imager (Sartorius, Göttingen, Germany) every 4 hours over a period of 5 days. Growth curves were generated by monitoring confluence over time. Proliferative capacity of PNPLA3 I148M-expressing cells was compared to control cells, and the restoration of proliferative fitness was analyzed.

[1] = tested on: Huh7 cells expressing unmodified PNPLA3 I148M; assay: Incucyte growth curves, Huh7 expressing PNPLA3 I148M; assay type: cell-based, human; details: 1μM or 5μM
Protocol: as §1

`Cc1cccc(Cc2nc(C)c(C(=O)Nc3cc(O)ccc3Cl)s2)c1` [NUV-244] showed an EC50 (PNPLA3 I148M-tagRFP; HTS batch (hit), 24h, two independent determinations, read-out: EC50 Huh7, PNPLA3 I148M-tagRFP reduction) of 2.28e-07 ± 3.1e-08 M, an EC50 (PNPLA3 I148M-tagRFP; representative dose-response curve, Figure 2D, read-out: EC50 [M] Huh7, PNPLA3-I148M-tagRFP) of 2.05e-07 M and an EC50 (PNPLA3 I148M-tagRFP; representative dose-response curve, Figure 3B, read-out: EC50 [M] Huh7, PNPLA3 I148M-tagRFP) of 3.51e-07 M. The EC50 (PNPLA3 I148M-tagRFP; resynthesis, representative curve, Figure 4C, read-out: EC50 [M] Huh7, PNPLA3 I148M-tagRFP intensity on lipid droplets) was 3.8e-07 M, the “effect on melting curve of PNPLA2 protein” value (PNPLA2) was “did not affect the melting curve” and the “effect on proliferative capacity, LX-2” value (LX-2 cells) was “no effects”. For the same compound, the “proliferative fitness of Huh7 cells expressing PNPLA3 I148M” value [1] was “restored”.
